Data as given in patent US5234935A, “N-alkylated 1,4-dihydropyridine-dicarboxylic acid esters” (Bayer Aktiengesellschaft, priority 1990, dated 1993).
pEC50, pIC50: −log10 of the molar value.

Assays:
[1] = system: erythrocytes; assay: Filtration of calcium-laden erythrocytes through 5 μm pores; assay type: cell-based; settings: Erythrocyte, 0.5 h; filtration through 5 μm sieve pores; sheared in normal buffer 30 min; read-out: ED50 improvement in the flexibility compared to damage to control
Method: Test c) detects the filterability of calcium-laden erythrocytes through 5 μm pores (ED50, mol/l). In this test, the membrane flexibility plays a role under small force gradients.
Filtration of erythrocytes through 5 μm sieve pores is an established method for the determination of the deformability of erythrocytes. The cells are sheared in normal buffer for 30 min so that the calcium concentration increases intracellularly and the flexibility is reduced.

[2] = system: erythrocytes; assay: Antihaemolytic action, calcium-laden erythrocytes under high shearing stress; assay type: cell-based; settings: Erythrocyte; reduction of haemoglobin release from calcium-laden erythrocytes; read-out: ED50 of the antihaemolytic action
Text: Test b) detects the antihaemolytic action of the substances (ED50, mol/l). In this test, calcium-laden erythrocytes are forced through small pores under high shearing stresses, so that haemoglobin is released as a result of their haemolysis and measured. The reduction in haemoglobin release is the measured quantity.
Normal erythrocytes become haemolytic under high shearing stresses. The haemolysis of calcium-laden cells is particularly pronounced. This measure of mechanical stability is used for substance characterization. The measured quantity is the concentration of free haemoglobin in the medium.

[3] = system: SH rats; assay: Blood pressure in SH rats after p.o. administration (tail artery, Riva Rocci); assay type: in vivo, rat
Method: (§1) The blood pressure neutrality is determined in the following models, which are typical for dihydropyridines: in SH rats after p.o. administration by measurement in the tail artery (Riva Rocci method) and in anaesthetized Wistar rats after i.v. administration (via a catheter inserted in the carotid artery). Blood-neutral compounds are designated as those which reduce the blood pressure by at most 20% of the starting value in both test models at the dose indicated. The difference between the therapeutic dose and the blood pressure action occurring is at least a factor of 10, as a rule a factor of ≥30, in particular ≥100.

[4] = system: leukocyte adhesion; assay: Leukocyte adhesion in hamster cheek pouch model; assay type: in vivo; settings: 0.1 mg/kg i.v.; for Leukocyte adhesion, Ischaemic, control = 100%: ischaemic (10 min circulation stop), small arterioles; for Leukocyte adhesion, Non-ischaemic, control = 100%: small venules
Method: The microcirculation can be directly observed in the hamster cheek pouch model. Measured quantities are leukocyte adhesion and also vessel diameter and erythrocyte velocity. The adhesion was quantified under ischaemic and non-ischaemic experimental conditions. Under non-ischaemic conditions, the adhesion is quantified in the area of small venules, under ischaemic conditions (10 min circulation stop) the adhesion is quantified in small arterioles. The results of the control experiments are given relative to 100%. 0.1 mg/kg i.v. is in each case chosen as the test dose, the results are decreases in % of the control.

[5] = system: erythrocytes; assay: Calcium permeability of erythrocytes (45Ca) after ATPase blockade by Na ortho-vanadate; assay type: cell-based; settings: Erythrocyte; inhibition of calcium influx (45Ca); Na ortho-vanadate 0.75 mM; read-out: ED50 of the inhibition
Method: Test a) measures the calcium permeability (^45 Ca) by blockade of the ATPases by Na ortho-vanadate. As a result, calcium can accumulate in the erythrocytes. A consequence is a reduced flexibility. ED50 values (mol/l) for the inhibition of calcium influx are given for test a).
After blockade of the membrane-immobilized ATPases by Na ortho-vanadate (0.75 mM), the calcium permeability is measured (^45 Ca method). Accumulation of calcium reduces the flexibility of the erythrocytes.

[6] = system: anaesthetized Wistar rats; assay: Blood pressure in anaesthetized Wistar rats after i.v. administration (carotid catheter); assay type: in vivo, rat
Method: as §1

Row | SMILES | pEC50 [1] | pEC50 [2] | Dose at which a blood pressure reduction occurs, p.o. [3] [mg/kg] | Leukocyte adhesion, Ischaemic, control = 100% [4] [%] | Leukocyte adhesion, Non-ischaemic, control = 100% [4] [%] | pIC50 [5] | Dose at which a blood pressure reduction occurs, i.v. [6] [mg/kg]
1 | CCOC(=O)C1=C(C)N(C)C(C)=C(C(=O)OCC)C1c1ccc(F)cc1 [Example 1, Diethyl 1,2,6-trimethyl-4-(4-fluorophenyl)-1,4-dihydropyridine-3,5-dicarboxylate] | 5.30 |  |  |  |  |  | 
2 | COC(=O)C1=C(C)N(C)C(C)=C(C(=O)OC)C1c1cccc(F)c1 [Example 2, Dimethyl 4-(3-fluorophenyl)-1,2,6-trimethyl-1,4-dihydropyridine-3,5-dicarboxylate] |  | 7.00 |  |  |  |  | 
3 | COC(=O)C1=C(C)N(C)C(C)=C(C(=O)OC)C1c1ccc(C(F)(F)F)cc1 [Example 3, Dimethyl 1,2,6-trimethyl-4-(4-trifluoromethylphenyl)-1,4-dihydro-pyridine-3,5-dicarboxylate] | 5.30 |  | > 30 | 31 | 63 | 5.30 | > 10
4 | CCCCOC(=O)C1=C(C)N(C)C(C)=C(C(=O)OCCCC)C1c1ccc([N+](=O)[O-])cc1 [Example 6, dibutyl 1,2,6-trimethyl-4-(4-nitrophenyl)-1,4-dihydropyridine-3,5-dicarboxylate] |  |  | > 30 | 56 | 50 |  | > 10
5 | COC(=O)C1=C(C)N(C)C(C)=C(C(=O)OC(C)C(C)C)C1c1ccc(C(F)(F)F)cc1 (centres unmarked) [Example 9, methyl 1,2-dimethylpropyl 1,2,6-trimethyl-4-(4-trifluoromethylphenyl)-1,4-dihydro-pyridine-3,5-dicarboxylate] |  |  | > 30 | 36 | 70 |  | > 10
6 | COC(=O)C1=C(C)N(C)C(C)=C(C(=O)OC)C1c1ccc(Br)cc1 [Example 13, dimethyl 1,2,6-trimethyl-4-(4-bromophenyl)-1,4-dihydropyridine-3,5-dicarboxylate] |  | 6.30 |  |  |  | 5.30 | 
7 | CCCOC(=O)C1=C(C)N(C)C(C)=C(C(=O)OCCC)C1c1ccc(C#N)cc1 [Example 15, dipropyl 1,2,6-trimethyl-4-(4-cyanophenyl)-1,4-dihydropyridine-3,5-dicarboxylate] |  | 5.30 |  |  |  |  | 
8 | COC(=O)C1=C(C)N(C2CC2)C(C)=C(C(=O)OC)C1c1ccc(C(F)(F)F)cc1 [Example 18, dimethyl 1-cyclopropyl-2,6-dimethyl-4-(4-trifluoromethylphenyl)-1,4-dihydro-pyridine-3,5-dicarboxylate] |  |  | > 30 | 32 | 54 |  | > 10
9 | CCOC(=O)C1=C(C)N(C2CC2)C(C)=C(C(=O)OCC)C1c1ccc(C(F)(F)F)cc1 [Example 19, diethyl 1-cyclopropyl-2,6-dimethyl-4-(4-trifluoromethylphenyl)-1,4-dihydro-pyridine-3,5-dicarboxylate] |  |  | > 100 | 34 | 61 |  | > 10
10 | COC(=O)C1=C(C)N(C)C(C)=C(C(=O)OC)C1c1ccc(C)c([N+](=O)[O-])c1 [Example 21, dimethyl 1,2,6-trimethyl-4-(4-methyl-3-nitrophenyl)-1,4-dihydro-pyridine-3,5-dicarboxylate] |  | 6.30 |  |  |  | 5.30 | 
11 | CCOC(=O)C1=C(C)N(C)C(C)=C(C(=O)OCC)C1c1ccc(C)c([N+](=O)[O-])c1 [Example 22, diethyl 1,2,6-trimethyl-4-(4-methyl-3-nitrophenyl)-1,4-dihydro-pyridine-3,5-dicarboxylate] |  | 6.30 |  |  |  |  | 
12 | COC(=O)C1=C(C)N(C)C(C)=C(C(=O)OC)C1c1ccc(Cl)c(C(F)(F)F)c1 [Example 26, dimethyl 1,2,6-trimethyl-4-(4-chloro-3-trifluoromethylphenyl)-1,4-dihydro-pyridine-3,5-dicarboxylate] | 5.30 | 7.52 |  |  |  |  | 
13 | COC(=O)C1=C(C)N(C)C(C)=C(C(=O)OC)C1c1ccc(C)c(C(F)(F)F)c1 [Example 27, dimethyl 1,2,6-trimethyl-4-(4-methyl-3-trifluoromethylphenyl)-1,4-dihydro-pyridine-3,5-dicarboxylate] |  | 7.30 |  |  |  | 6.00 | 
14 | COC(=O)C1=C(C)N(C)C(C)=C(C(=O)OC)C1c1ccc([N+](=O)[O-])c(O)c1 [Example 28, dimethyl 1,2,6-trimethyl-4-(3-hydroxy-4-nitrophenyl)-1,4-dihydro-pyridine-3,5-dicarboxylate] | 5.30 |  |  |  |  |  | 
